# Data taken from PubChem BioAssay (NCI).
#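 A five-concentration, 48-hour dose response in 96-well plates underlies each endpoint, interpolated linearly between surrounding concentrations. At the TGI there is no net growth.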
# Tests used:
# Assay in all cases: NCI anticancer screen, dose series, 48 h
# [1] = tested on: SK-MEL-5 melanoma
# [2] = tested on: RXF 393 renal
# [3] = tested on: UO-31 renal
# [4] = tested on: SNB-19 CNS
# [5] = tested on: NCI-H226 lung
# [6] = tested on: HCT-15 colon
# [7] = tested on: A498 renal
# [8] = tested on: HCC-2998 colon
# [9] = tested on: SNB-75 CNS
# [10] = tested on: UACC-62 melanoma
# [11] = tested on: HT29 colon
# [12] = tested on: NCI-H23 lung
# [13] = tested on: HOP-62 NSCLC
# [14] = tested on: MDA-N
# [15] = tested on: SK-MEL-2 melanoma
# [16] = tested on: MDA-MB-435
# [17] = tested on: COLO 205 colon
# [18] = tested on: ACHN renal
# [19] = tested on: PC-3 prostate
# [20] = tested on: K-562 leukemia
# [21] = tested on: HOP-92 NSCLC
# [22] = tested on: OVCAR-4 ovarian
# [23] = tested on: EKVX NSCLC
# [24] = tested on: T-47D breast
# [25] = tested on: MCF7 breast
# [26] = tested on: LOX IMVI melanoma
# [27] = tested on: BT-549 breast
# [28] = tested on: 786-0 renal
# [29] = tested on: A549 NSCLC
# [30] = tested on: HL-60(TB) leukemia
# [31] = tested on: UACC-257 melanoma
# [32] = tested on: MALME-3M melanoma
# [33] = tested on: HCT-116 colon
# [34] = tested on: SF-539 CNS
# [35] = tested on: RPMI-8226 leukemia
# [36] = tested on: SK-OV-3 ovarian
# [37] = tested on: M14 melanoma
# [38] = tested on: NCI/ADR-RES ovarian
# [39] = tested on: SW-620 colon
# [40] = tested on: U251 CNS
# [41] = tested on: SF-295 CNS
# [42] = tested on: OVCAR-8 ovarian
# [43] = tested on: SR leukemia
# [44] = tested on: KM12 colon
# [45] = tested on: IGROV1 ovarian
# [46] = tested on: HS 578T breast
# [47] = tested on: OVCAR-5 ovarian
# [48] = tested on: SF-268 CNS
# [49] = tested on: OVCAR-3 ovarian
# [50] = tested on: NCI-H460 lung
# [51] = tested on: MOLT-4 leukemia
# [52] = tested on: TK-10 renal
# [53] = tested on: SK-MEL-28 melanoma
# [54] = tested on: CCRF-CEM leukemia
# [55] = tested on: MDA-MB-231 breast
# [56] = tested on: NCI-H522 lung
# [57] = tested on: SN12C renal
# [58] = tested on: CAKI-1 renal
structure (smiles),measurement,setting,value
CN(NC(=O)c1cccs1)C1=NCCCCN1,TGI,[1],> 100 µM
same,TGI,[2],> 100 µM
same,TGI,[3],> 100 µM
same,TGI,[4],> 100 µM
same,TGI,[5],> 100 µM
same,TGI,[6],> 100 µM
same,TGI,[7],> 100 µM
same,TGI,[8],> 100 µM
same,TGI,[9],> 100 µM
same,TGI,[10],> 100 µM
same,TGI,[11],> 100 µM
same,TGI,[12],> 100 µM
same,TGI,[13],> 100 µM
same,TGI,[14],> 100 µM
same,TGI,[15],> 100 µM
same,TGI,[16],> 100 µM
same,TGI,[17],> 100 µM
same,TGI,[18],> 100 µM
same,TGI,[19],> 100 µM
same,TGI,[20],> 100 µM
same,TGI,[21],> 100 µM
same,TGI,[22],> 100 µM
same,TGI,[23],> 100 µM
same,TGI,[24],> 100 µM
same,TGI,[25],> 100 µM
same,TGI,[26],> 100 µM
same,TGI,[27],> 100 µM
same,TGI,[28],> 100 µM
same,TGI,[29],> 100 µM
same,TGI,[30],> 100 µM
same,TGI,[31],> 100 µM
same,TGI,[32],> 100 µM
same,TGI,[33],> 100 µM
same,TGI,[34],> 100 µM
same,TGI,[35],> 100 µM
same,TGI,[36],> 100 µM
same,TGI,[37],> 100 µM
same,TGI,[38],> 100 µM
same,TGI,[39],> 100 µM
same,TGI,[40],> 100 µM
same,TGI,[41],> 100 µM
same,TGI,[42],> 100 µM
same,TGI,[43],> 100 µM
same,TGI,[44],> 100 µM
same,TGI,[45],> 100 µM
same,TGI,[46],> 100 µM
same,TGI,[47],> 100 µM
same,TGI,[48],> 100 µM
same,TGI,[49],> 100 µM
same,TGI,[50],> 100 µM
same,TGI,[51],> 100 µM
same,TGI,[52],> 100 µM
same,TGI,[53],> 100 µM
same,TGI,[54],> 100 µM
same,TGI,[55],> 100 µM
same,TGI,[56],> 100 µM
CCCCCCCCCCCCCCCCOCC(Cl)COP(=O)(O)OP(=O)(O)OCC1OC(n2cc(C)c(=O)[nH]c2=O)CC1O (configuration not stated),TGI,[1],> 100 µM
same,TGI,[2],> 100 µM
same,TGI,[3],> 100 µM
same,TGI,[4],> 100 µM
same,TGI,[5],80.5 µM
same,TGI,[6],> 100 µM
same,TGI,[7],> 100 µM
same,TGI,[8],> 100 µM
same,TGI,[9],71.8 µM
same,TGI,[57],> 100 µM
same,TGI,[11],> 100 µM
same,TGI,[12],> 100 µM
same,TGI,[13],> 100 µM
same,TGI,[14],> 100 µM
same,TGI,[15],> 100 µM
same,TGI,[16],> 100 µM
same,TGI,[17],> 100 µM
same,TGI,[18],> 100 µM
same,TGI,[19],62.9 µM
same,TGI,[20],> 100 µM
same,TGI,[21],> 100 µM
same,TGI,[22],> 100 µM
same,TGI,[23],> 100 µM
same,TGI,[24],> 100 µM
same,TGI,[25],> 100 µM
same,TGI,[26],> 100 µM
same,TGI,[27],> 100 µM
same,TGI,[28],> 100 µM
same,TGI,[29],> 100 µM
same,TGI,[30],> 100 µM
same,TGI,[31],> 100 µM
same,TGI,[32],> 100 µM
same,TGI,[33],> 100 µM
same,TGI,[34],> 100 µM
same,TGI,[35],> 100 µM
same,TGI,[36],> 100 µM
same,TGI,[37],> 100 µM
same,TGI,[38],> 100 µM
same,TGI,[39],> 100 µM
same,TGI,[40],> 100 µM
same,TGI,[41],> 100 µM
same,TGI,[42],> 100 µM
same,TGI,[58],> 100 µM
same,TGI,[44],> 100 µM
same,TGI,[45],> 100 µM
same,TGI,[46],86.4 µM
same,TGI,[47],> 100 µM
same,TGI,[48],> 100 µM
same,TGI,[49],> 100 µM
same,TGI,[50],> 100 µM
same,TGI,[51],> 100 µM
same,TGI,[52],> 100 µM
same,TGI,[53],> 100 µM
same,TGI,[54],> 100 µM
same,TGI,[55],> 100 µM
same,TGI,[56],> 100 µM
